{"source": "paper PMC4811503", "about": "“A method for quantification of exportin-1 (XPO1) occupancy by Selective Inhibitor of Nuclear Export (SINE) compounds” (Oncotarget, 2015)", "key": {"[1]": {"system": "nuclear export of the XPO1 cargo protein Rev-GFP in stably transfected U2OS cells", "test": "Rev-GFP assay (nuclear retention of Rev-GFP)", "format": "cell-based", "settings": "Homo sapiens", "text": "(§1) For this assay we utilized biotinylated LMB (b-LMB) as a tool compound to quantify the amount of XPO1 bound by SINE compounds (Figure 1). b-LMB was synthesized by coupling a biotin tag to LMB. We compared the inhibition of nuclear export and the cytotoxicity of b-LMB to that of the unmodified LMB. […] We then quantified the effects of these compounds on cell death in several cancer cell lines using an MTT cytotoxicity assay (Table 2).\nFor the typical Rev-GFP assay, U2OS cells stably expressing Rev-GFP [42] were cultured in 96 well plates at 7,500 - 15,000 cells/well. […] After fixation cells were stained with DAPI (Invitrogen) for 10 minutes at room temperature. Cells were imaged with a Nikon fluorescent microscope at 10X magnification and intensity of the GFP and nuclear area were measured and recorded. Cells were scored as either GFP nuclear positive or negative. Number of positive cells were divided by total number of cells in order to calculate percentage of cells with nuclear GFP per well."}, "[2]": {"test": "MTT assay of unmodified and biotinylated SINE compounds (cell line not given)", "format": "cell-based", "settings": "for IC50: cell line not named; for fold less cytotoxic compared to unmodified counterpart: ratio of MTT IC50 values"}, "[3]": {"biological_target": "XPO1 (Homo sapiens, UniProt O14980)", "sequence (O14980 whole entry)": "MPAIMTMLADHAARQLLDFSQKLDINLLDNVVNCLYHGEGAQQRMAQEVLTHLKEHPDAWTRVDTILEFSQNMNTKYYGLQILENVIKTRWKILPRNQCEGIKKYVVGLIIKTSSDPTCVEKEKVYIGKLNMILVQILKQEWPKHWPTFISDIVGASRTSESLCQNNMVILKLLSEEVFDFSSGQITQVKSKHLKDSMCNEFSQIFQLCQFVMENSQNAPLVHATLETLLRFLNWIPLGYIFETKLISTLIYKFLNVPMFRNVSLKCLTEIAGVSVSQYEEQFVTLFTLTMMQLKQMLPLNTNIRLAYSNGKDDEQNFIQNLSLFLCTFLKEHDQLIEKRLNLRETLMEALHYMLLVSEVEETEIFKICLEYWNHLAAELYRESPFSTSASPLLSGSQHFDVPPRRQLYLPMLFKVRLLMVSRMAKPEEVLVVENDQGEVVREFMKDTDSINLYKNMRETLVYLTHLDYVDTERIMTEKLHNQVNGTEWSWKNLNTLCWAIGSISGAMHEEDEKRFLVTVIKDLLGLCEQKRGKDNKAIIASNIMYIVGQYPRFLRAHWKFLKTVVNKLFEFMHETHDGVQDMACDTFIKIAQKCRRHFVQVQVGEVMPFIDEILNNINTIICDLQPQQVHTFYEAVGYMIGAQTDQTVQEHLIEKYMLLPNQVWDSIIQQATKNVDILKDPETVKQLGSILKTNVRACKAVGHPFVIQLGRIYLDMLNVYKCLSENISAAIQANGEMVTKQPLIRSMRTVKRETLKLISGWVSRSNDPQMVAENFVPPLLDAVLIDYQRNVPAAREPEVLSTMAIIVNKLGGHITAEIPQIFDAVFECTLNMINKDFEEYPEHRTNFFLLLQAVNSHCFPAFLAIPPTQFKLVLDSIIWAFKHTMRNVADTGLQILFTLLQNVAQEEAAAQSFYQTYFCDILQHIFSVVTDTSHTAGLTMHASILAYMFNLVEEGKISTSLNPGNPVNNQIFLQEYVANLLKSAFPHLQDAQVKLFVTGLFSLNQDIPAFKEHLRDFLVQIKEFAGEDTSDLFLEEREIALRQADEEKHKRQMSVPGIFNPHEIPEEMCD", "test": "XPO1 occupancy assay in cultured cell lines (biotinylated probe pull-down, Simple Western)", "format": "cell-based", "parameters": "Cells were collected, washed with PBS, and lysed with RIPA Buffer; endogenous in cells; host or cells: MM.1S", "settings": "MM.1S cells", "method": "b-LMB was tested for the ability to bind XPO1 protein. First, a dose-response curve was generated by exposing MM.1S cells to increasing concentrations of b-LMB (0 – 500 nM) for 1.5 hours in culture. The cells were then collected, lysed, and a portion of the lysate (input) was reserved prior to incubating the remaining lysate with streptavidin-tagged beads overnight. After extensive washes, b-LMB bound XPO1 was eluted from the beads, and XPO1 from both input and bead eluate was detected and quantified by Simple Western on Peggy Sue. Simple Western allows for the chemiluminescent detection of proteins from small volumes of samples that are run through a matrix-filled capillary. The signal is detected by a CCD camera which generates a digital image and then reports quantitative results. […] The protein signals for XPO1 detected by Simple Western in Figure 2A were reported as mean peak areas and were used to compare levels of XPO1 present in each sample to produce a graphical representation of the ratio of free XPO1 detected at each concentration of b-LMB (Figure 2B). “Ratio of bound XPO1” is defined as the ratio of the mean peak area of b-LMB bound XPO1 detected in the eluate compared to the mean peak area of all XPO1 detected in the input lysate, while “free-fraction” refers to the amount of XPO1 not occupied by SINE compound, as described later.\nThe cells were then collected and processed for the XPO1 occupancy assay. […] For these assays, the “ratio of free-fraction XPO1” is calculated by dividing the mean peak areas of XPO1 occupied by b-LMB (from the eluate) by the total amount of XPO1 (from the input).\nCells were collected, washed with PBS, and lysed with RIPA Buffer (Thermo Scientific) with protease inhibitors [Complete Ultra Tablets, Mini, EDTA-free, Easy pack (Roche), PhosStop Easy (Roche)]. A portion of the lysate was reserved (input) while the rest was added to washed Dynabeads MyOne Streptavidin T1 (Invitrogen) with RIPA Buffer. Samples were incubated overnight with constant rotation at 4°C. Beads were then washed 5 times with modified RIPA (150 mM NaCl, 50 mM Tris, 1% NP-40, 0.1% Na deoxycholate, 1 mM EDTA, pH 7.8). The reserved portion of lysates (input) and the beads were each mixed with Protein Simple buffer (Protein Simple), DTT (Invitrogen), and fluorescent standards (Protein Simple), then boiled at 95°C for 10 min. Eluates and inputs were analyzed using a capillary western method (Peggy Sue; Protein Simple) with the following primary antibodies: XPO1 (Santa Cruz) and β-actin (Santa Cruz). Capillary westerns were performed by SBH Sciences (Natick, MA). Peak areas corresponding to the protein molecular weight of XPO1 and actin were compared for sample inputs, while the ratio of XPO1 peak areas in eluate to input (ratio of bound or free-fraction XPO1) versus compound concentration were used in XLFit model 205 to calculate 50% and 90% occupancy curves."}, "[4]": {"system": "MM.1S", "test": "MTT cytotoxicity assay", "format": "cell-based", "settings": "Homo sapiens, MM1.S, 72 hours, read-out: IC50"}, "[5]": {"system": "HCT-116", "test": "MTT cytotoxicity assay", "format": "cell-based", "settings": "Homo sapiens, 72 hours, read-out: IC50"}, "[6]": {"system": "AML2", "test": "MTT cytotoxicity assay", "format": "cell-based", "settings": "72 hours, read-out: IC50"}, "[7]": {"system": "AML3", "test": "MTT cytotoxicity assay", "format": "cell-based", "settings": "72 hours, read-out: IC50"}, "[8]": {"system": "several cancer cell lines", "settings": "human, 72 h", "method": "as §1\nCells were seeded in 96-well flat-bottom culture plates. […] Triplicate wells per concentration were used to calculate IC50 curves. The CellTiter-Fluor Cell Viability Assay (Promega) was performed as instructed by the manufacturer. The whole procedure was repeated three times. The inhibitory rate of cell growth was calculated using the formula: % growth inhibition = (1− OD extract treated)/OD negative control × 100)."}, "[9]": {"settings": "read-out: Rev GFP IC50 (nM), U2OS Rev-GFP cells, unmodified and biotinylated SINE compounds"}, "[10]": {"settings": "read-out: Rev-GFP IC50 (μM), U2OS Rev-GFP cells"}, "[11]": {"settings": "SINE compound 1 hour, then 1 nM b-LMB […]"}, "[12]": {"settings": "SINE compound 1 hour, then 1 nM b-LMB […], read-out: Avg 50% Occupancy"}, "[13]": {"settings": "biotinylated SINE compound alone, direct binding"}, "[14]": {"settings": "biotinylated SINE compound alone, direct binding, read-out: 50% Occupancy"}, "[15]": {"settings": "4 h, read-out: Rev-GFP (nM), U2OS cells stably expressing Rev-GFP, 4 hours treatment"}}, "note": "Read-outs that look alike come from different tables or passages of the source.", "data": [{"smiles": "NC(=O)/C(=C/n1cnc(-c2cc(C(F)(F)F)cc(C(F)(F)F)c2)n1)c1cncnc1", "note": "[KPT-8602]", "values": [{"measurement": "IC50", "setting": "[1]; [9]", "value": 42, "unit": "nM"}, {"measurement": "IC50", "setting": "[1]; [10]", "value": 40, "unit": "nM"}, {"measurement": "IC50", "setting": "[2]", "value": 19, "unit": "nM"}, {"measurement": "Avg 90% Occupancy (μM)", "setting": "[3]; [11]", "value": "1.1 +/− 1.03 (n = 2) μM"}, {"measurement": "90% Occupancy", "setting": "[3]; followed by 0.1 μM KPT-9511 as probe", "value": 0.11, "unit": "µM"}]}, {"smiles": "O=C(/C=C\\n1cnc(-c2cc(C(F)(F)F)cc(C(F)(F)F)c2)n1)N1CC(F)(F)C1", "note": "[KPT-276]", "values": [{"measurement": "IC50", "setting": "[1]; [9]", "value": 53, "unit": "nM"}, {"measurement": "IC50", "setting": "[2]", "value": 18, "unit": "nM"}]}, {"smiles": "CC(C)(C)C(=O)NNC(=O)/C=C\\n1cnc(-c2cc(C(F)(F)F)cc(C(F)(F)F)c2)n1", "note": "[KPT-350]", "values": [{"measurement": "IC50", "setting": "[1]; [10]", "value": 170, "unit": "nM"}, {"measurement": "Avg 90% Occupancy (μM)", "setting": "[3]; [11]", "value": "6.45 +/− 3.36 (n = 3) μM"}, {"measurement": "EC50", "setting": "[3]; [12]", "value": 630, "unit": "nM"}]}, {"smiles": "COc1cc(-c2ncn(/C=C/C(=O)OC(C)C)n2)cc(C(F)(F)F)c1", "note": "[KPT-301]", "values": [{"measurement": "XPO1 binding in the occupancy assay (negative control)", "setting": "[3]; 0 – 10 μM, then 1 nM b-LMB, data not shown", "value": "no XPO1 bound"}]}, {"smiles": "O=C1N[C@H]2[C@H](CS[C@H]2CCCCC(=O)Oc2cc(-c3ncn(/C=C\\C(=O)N4CC(F)(F)C4)n3)cc(C(F)(F)F)c2)N1", "note": "[KPT-9058]", "values": [{"measurement": "IC50", "setting": "[1]; [9]", "value": 961, "unit": "nM"}, {"measurement": "IC50", "setting": "[2]", "value": 110, "unit": "nM"}, {"measurement": "fold less cytotoxic compared to unmodified counterpart", "setting": "[2]", "value": "~6", "unit": "fold"}, {"measurement": "90% Occupancy", "setting": "[3]; [13]", "value": 0.69, "unit": "µM"}, {"measurement": "EC50", "setting": "[3]; [14]", "value": 120, "unit": "nM"}]}, {"smiles": "O=C(/C=C\\n1cnc(-c2cc(C(F)(F)F)cc(C(F)(F)F)c2)n1)NNc1ccccn1", "note": "[Verdinexor, verdinexor]", "values": [{"measurement": "IC50", "setting": "[1]; [10]", "value": 10, "unit": "nM"}, {"measurement": "Avg 90% Occupancy (μM)", "setting": "[3]; [11]", "value": "0.34 +/− 0.08 (n = 3) μM"}, {"measurement": "EC50", "setting": "[3]; [12]", "value": 40, "unit": "nM"}]}, {"smiles": "CCC(=C/[C@H](C)C/C=C/C(C)=C/[C@@H](C)C(=O)[C@@H](C)[C@H](O)[C@@H](C)C/C(C)=C/C(=O)O)/C=C/[C@@H]1OC(=O)C=C[C@@H]1C", "note": "[LMB, leptomycin B, reference compound]", "values": [{"measurement": "IC50", "setting": "[1]; [15]", "value": 0.16, "unit": "nM"}, {"measurement": "IC50", "setting": "[4]", "value": 0.46, "unit": "nM"}, {"measurement": "IC50", "setting": "[5]", "value": 0.19, "unit": "nM"}, {"measurement": "IC50", "setting": "[6]", "value": 0.39, "unit": "nM"}, {"measurement": "IC50", "setting": "[7]", "value": 0.68, "unit": "nM"}]}, {"smiles": "NC(=O)/C(=C/n1cnc(-c2cc(OC(=O)CCCC[C@@H]3SC[C@@H]4NC(=O)N[C@@H]43)cc(C(F)(F)F)c2)n1)c1cncnc1", "note": "[KPT-9511]", "values": [{"measurement": "IC50", "setting": "[1]; [9]", "value": 230, "unit": "nM"}, {"measurement": "IC50", "setting": "[2]", "value": 280, "unit": "nM"}, {"measurement": "fold less cytotoxic compared to unmodified counterpart", "setting": "[2]", "value": "~15", "unit": "fold"}, {"measurement": "90% Occupancy", "setting": "[3]; [13]", "value": 0.61, "unit": "µM"}, {"measurement": "EC50", "setting": "[3]; [14]", "value": 180, "unit": "nM"}]}, {"smiles": "CCC(C=CC1OC(=O)C=CC1C)=CC(C)CC=CC(C)=CC(C)C(=O)C(C)C(O)C(C)CC(C)=CC(=O)NCCCCCCNC(=O)CCCCC1SCC2NC(=O)NC21", "note": "(stereo not shown) [b-LMB, reference compound]", "values": [{"measurement": "IC50", "setting": "[1]; [15]", "value": 0.11, "unit": "nM"}, {"measurement": "IC50", "setting": "[4]", "value": 3.1, "unit": "nM"}, {"measurement": "IC50", "setting": "[5]", "value": 6, "unit": "nM"}, {"measurement": "IC50", "setting": "[6]", "value": 2.53, "unit": "nM"}, {"measurement": "IC50", "setting": "[7]", "value": 4.68, "unit": "nM"}, {"measurement": "fold less cytotoxic than unmodified LMB", "setting": "[8]", "value": "6 – 30 fold"}, {"measurement": "amount of b-LMB necessary to occupy 90% of XPO1", "setting": "[3]; b-LMB […], direct binding, n = 3", "value": "2.53 ± 1.72", "unit": "nM"}, {"measurement": "EC50", "setting": "[3]; b-LMB […], direct binding, n = 3, read-out: amount of b-LMB necessary to occupy 50% of XPO1", "value": 0.27, "unit": "nM"}]}]}
